Measured values reported in ChEMBL document CHEMBL3046825, “Molecular Mechanism for Selective Toxicity of Nicotinoids and Neonicotinoids” (J Pestic Sci, 1995).
pIC50: −log10 of the molar value. Calls of active or inactive are those of the source. The calls are words filed in the database; no cut-off is given here.

Key:
[1] = Displacement of [3H]alpha-BGT from nAChR in Apis mellifera (honeybee) head
[2] = biological target: Acetylcholine receptor subunit alpha (Torpedo californica) (UniProt P02710); assay: Increase in [3H]PCP binding to nAChR in Torpedo nobiliana electric organs in presence of carbachol; conditions: Electric organ
[3] = biological target: Acetylcholine receptor subunit alpha (Torpedo californica) (UniProt P02710); assay: Increase in [3H]PCP binding to nAChR in Torpedo nobiliana electric organs; conditions: Electric organ
[4] = biological target: Acetylcholine receptor subunit alpha (Torpedo californica) (UniProt P02710); assay: Inhibition of [3H]PCP binding to nAChR in Torpedo nobiliana electric organs in presence of carbachol; conditions: Electric organ
[5] = Displacement of [3H]nicotine from nAChR in Sprague-Dawley Rattus norvegicus (rat) whole brain homogenates; format: tissue-based
[6] = biological target: Acetylcholine receptor subunit alpha (Torpedo californica) (UniProt P02710); assay: Displacement of [3H]alpha-BGT from nAChR in Torpedo nobiliana electric organs at 300 uM; conditions: Electric organ
Apis mellifera = assay: Displacement of [3H]alpha-BGT from nAChR in Apis mellifera (honeybee) head at 1000 uM
[7] = biological target: Acetylcholine receptor subunit alpha (Torpedo californica) (UniProt P02710); assay: Displacement of [3H]alpha-BGT from nAChR in Torpedo nobiliana electric organs at 1000 uM; conditions: Electric organ
Rattus norvegicus = organism: Rattus norvegicus; assay: Displacement of [3H]nicotine from nAChR in Sprague-Dawley Rattus norvegicus (rat) whole brain homogenates at 1000 uM; format: tissue-based

Chain of Acetylcholine receptor subunit alpha (Torpedo californica) (P02710 whole entry): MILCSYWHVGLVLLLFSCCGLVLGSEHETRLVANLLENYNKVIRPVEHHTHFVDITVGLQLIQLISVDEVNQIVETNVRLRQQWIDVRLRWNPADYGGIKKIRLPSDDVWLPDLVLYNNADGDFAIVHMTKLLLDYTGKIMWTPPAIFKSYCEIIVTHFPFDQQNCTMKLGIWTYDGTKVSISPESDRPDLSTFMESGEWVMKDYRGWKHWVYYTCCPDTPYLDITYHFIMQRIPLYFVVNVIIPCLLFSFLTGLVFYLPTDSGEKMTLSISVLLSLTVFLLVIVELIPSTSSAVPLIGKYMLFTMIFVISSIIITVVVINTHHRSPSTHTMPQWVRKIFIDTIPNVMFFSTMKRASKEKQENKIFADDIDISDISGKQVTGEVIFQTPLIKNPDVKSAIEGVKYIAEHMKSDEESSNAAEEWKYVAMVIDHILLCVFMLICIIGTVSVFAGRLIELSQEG

Row | SMILES | pIC50 [1] | Activity [2] | Activity [3] | pIC50 [5] | further results
1 | CCN(Cc1ccc(Cl)nc1)/C(=C/[N+](=O)[O-])NC [NITENPYRAM] | 4.21 | – | – | – | –
2 | CN(C)Cc1ccccn1 | – | inactive | Active | – | –
3 | CN(C)Cc1cccnc1 | – | inactive | Active | – | –
4 | C[N+](C)(C)C [TRETRAMETHYLAMMONIUM IODIDE] | 3.27 | inactive | Active | – | –
5 | O=[N+]([O-])/N=C1\NCCN1Cc1ccc(Cl)nc1 [IMIDACLOPRID] | 5.71 | inactive | 300% | 6.01 | inhibition [4]: inactive
6 | C/C(=N\C#N)N(C)Cc1ccc(Cl)nc1 [ACETAMIPRID] | 5.05 | – | – | – | inhibition [6]: 12.6%
7 | C[N+](C)(C)CCOC(N)=O [CARBACHOL] | 4.04 | – | – | 6.19 | –
8 | CN1CCC[C@H]1c1cccnc1 [NICOTINE] | 5.90 | inactive | Active | 8.02 | –
9 | O=[N+]([O-])C=C1NCCCS1 | 2.87 | – | – | 3.96 | –
10 | Cn1cccc1-c1cccnc1 [NICOTYRINE] | < 3.00 | – | – | < 3.00 | inhibition (Apis mellifera): 1.5%; inhibition [7]: 2.55%; inhibition (Rattus norvegicus): 15.6%
11 | CN(C)Cc1ccncc1 | – | inactive | Active | – | –
12 | c1cncc([C@@H]2CCCCN2)c1 [ANABASINE] | 5.70 | – | – | 6.55 | –
